Test results taken from the NIST ThermoML archive (doi:10.1021/acs.jced.9b00846).
± gives the expanded uncertainty stated by the source.

Conditions: Liquid, Vibrating tube method

CCC(C)CC [3-methylpentane]
mass density (323.15 K, 15009 kPa): 654.6 ± 0.9 kg/m3 | mass density (323.15 K, 20016 kPa): 659.8 ± 0.9 kg/m3 | mass density (323.15 K, 24987 kPa): 664.6 ± 0.9 kg/m3 | mass density (323.15 K, 30019 kPa): 669.1 ± 0.9 kg/m3 | mass density (323.15 K, 34996 kPa): 673.3 ± 1 kg/m3 | mass density (323.15 K, 40041 kPa): 677.4 ± 1 kg/m3 | mass density (323.15 K, 44988 kPa): 681.2 ± 1 kg/m3 | mass density (323.15 K, 49949 kPa): 684.9 ± 1.1 kg/m3 | mass density (323.15 K, 55004 kPa): 688.5 ± 1.1 kg/m3 | mass density (323.15 K, 59997 kPa): 691.8 ± 1.1 kg/m3 | mass density (323.15 K, 64995 kPa): 695.1 ± 1.2 kg/m3 | mass density (328.15 K, 4974 kPa): 638.3 ± 0.8 kg/m3 | mass density (328.15 K, 9983 kPa): 644.6 ± 0.8 kg/m3 | mass density (328.15 K, 14977 kPa): 650.4 ± 0.9 kg/m3 | mass density (328.15 K, 20010 kPa): 655.8 ± 0.9 kg/m3 | mass density (328.15 K, 25021 kPa): 660.8 ± 0.9 kg/m3 | mass density (328.15 K, 29956 kPa): 665.4 ± 0.9 kg/m3 | mass density (328.15 K, 34961 kPa): 669.7 ± 1 kg/m3 | mass density (328.15 K, 40039 kPa): 673.9 ± 1 kg/m3 | mass density (328.15 K, 45005 kPa): 677.9 ± 1 kg/m3 | mass density (328.15 K, 50036 kPa): 681.7 ± 1.1 kg/m3 | mass density (328.15 K, 54981 kPa): 685.2 ± 1.1 kg/m3 | mass density (328.15 K, 60023 kPa): 688.7 ± 1.1 kg/m3 | mass density (328.15 K, 65018 kPa): 692 ± 1.2 kg/m3 | mass density (333.15 K, 4969 kPa): 633.7 ± 0.8 kg/m3 | mass density (333.15 K, 9932 kPa): 640.2 ± 0.9 kg/m3 | mass density (333.15 K, 15031 kPa): 646.3 ± 0.9 kg/m3 | mass density (333.15 K, 19959 kPa): 651.8 ± 0.9 kg/m3 | mass density (333.15 K, 25022 kPa): 657 ± 0.9 kg/m3 | mass density (333.15 K, 29983 kPa): 661.7 ± 0.9 kg/m3 | mass density (333.15 K, 34948 kPa): 666.1 ± 1 kg/m3 | mass density (333.15 K, 39982 kPa): 670.4 ± 1 kg/m3 | mass density (333.15 K, 45015 kPa): 674.5 ± 1 kg/m3 | mass density (333.15 K, 49968 kPa): 678.3 ± 1.1 kg/m3 | mass density (333.15 K, 54981 kPa): 682 ± 1.1 kg/m3 | mass density (333.15 K, 59935 kPa): 685.5 ± 1.1 kg/m3 | mass density (333.15 K, 65077 kPa): 689 ± 1.2 kg/m3 | mass density (338.15 K, 5021 kPa): 629 ± 0.8 kg/m3 | mass density (338.15 K, 10019 kPa): 635.9 ± 0.9 kg/m3 | mass density (338.15 K, 15009 kPa): 642.1 ± 0.9 kg/m3 | mass density (338.15 K, 20030 kPa): 647.8 ± 0.9 kg/m3 | mass density (338.15 K, 25053 kPa): 653.1 ± 0.9 kg/m3 | mass density (338.15 K, 29999 kPa): 658 ± 1 kg/m3 | mass density (338.15 K, 34951 kPa): 662.6 ± 1 kg/m3 | mass density (338.15 K, 39974 kPa): 667 ± 1 kg/m3 | mass density (338.15 K, 45053 kPa): 671.2 ± 1 kg/m3 | mass density (338.15 K, 49966 kPa): 675.1 ± 1.1 kg/m3 | mass density (338.15 K, 54970 kPa): 678.8 ± 1.1 kg/m3 | mass density (338.15 K, 59984 kPa): 682.5 ± 1.1 kg/m3 | mass density (338.15 K, 65015 kPa): 685.9 ± 1.2 kg/m3 | mass density (343.15 K, 5000 kPa): 624.2 ± 0.8 kg/m3 | mass density (343.15 K, 10002 kPa): 631.4 ± 0.9 kg/m3 | mass density (343.15 K, 15025 kPa): 637.8 ± 0.9 kg/m3 | mass density (343.15 K, 20016 kPa): 643.7 ± 0.9 kg/m3 | mass density (343.15 K, 24973 kPa): 649.1 ± 0.9 kg/m3 | mass density (343.15 K, 29947 kPa): 654.2 ± 1 kg/m3 | mass density (343.15 K, 34977 kPa): 658.9 ± 1 kg/m3
